From patent US12258337B2, “Bicyclic CX3CR1 receptor agonists” (Board of Regents, The University of Texas System, priority 2019, dated 2025)

How the values were obtained:
Type in all cases: cell-based
mCX3CR1 = target: T1, mCX3CR1 (Mus musculus, UniProt Q9Z0D9); test: Ga16 assay, CX3CR1 agonism, Ca2+ sensitive photo-protein readout (FLIPRTETRA); conditions: mouse CX3CR1 cell line
T1 construct: expressed in transfected cells; stably expresses a Ca2+ sensitive photo-protein
T1 sequence (Q9Z0D9 1-354): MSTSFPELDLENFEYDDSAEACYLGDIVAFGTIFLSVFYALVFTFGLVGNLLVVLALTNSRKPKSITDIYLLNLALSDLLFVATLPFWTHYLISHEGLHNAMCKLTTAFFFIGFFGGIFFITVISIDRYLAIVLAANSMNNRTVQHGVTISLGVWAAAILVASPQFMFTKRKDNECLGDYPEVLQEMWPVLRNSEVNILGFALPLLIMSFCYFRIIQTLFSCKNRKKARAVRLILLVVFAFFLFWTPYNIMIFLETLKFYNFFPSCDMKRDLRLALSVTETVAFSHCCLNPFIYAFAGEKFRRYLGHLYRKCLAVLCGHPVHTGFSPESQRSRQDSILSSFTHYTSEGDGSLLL
Protocol: (§1) Compounds (as well as stereoisomer(s) thereof and/or salt(s) thereof) were tested for CX3CR1 agonism in a cell based assay with fluorescent readout in Agonist Mode in dose response in quadruplicate with intra-plate modality).
(§2) Buffers and reagents. PBS (D-PBS without calcium and magnesium; EuroClone); Trypsin (Trypsin 0.05%, EDTA 0.02% in PBS; EuroClone); DMSO (Sigma); Standard tyrode buffer: in-house solution (130 mM NaCl, 5 mM KCl, 2 mM CaCl2), 1 mM MgCl2, 5 mM NaHCO3, 20 mM HEPES in water at pH 7.4; sterile filtered); Coelenterazine, native (Biosynth); stock 10 mM; Agonist: Recombinant Human Fractalkine (CX3CL1) (PeproTech); stock: 10 μM in standard tyrode buffer+BSA 0.1%; stored at −20° C.
(§3) Cell line. Human (hCX3CR1), mouse (mCX3CR1), and rat (rCX3CR1) were used for the assay.
(§4) Assay protocol. Experiments ere performed in 384 MTP format. Cells were seeded at 7,500 cells/well in 25 μl/well complete growth medium without selection antibiotics in 384-well plates. Twenty-four hours later, cells ere assayed for the response to various compounds using the Ca^2+ sensitive photo-protein stably expressed in the cells as readout.
(§5) The experiment was performed in a 384-well format according to the following procedure: • 24h after seeding, pre-incubate the cells at room temperature for 1 hour. • Then remove the culture medium. • Load cells with 20 μL/well of standard tyrode buffer+10 μM ceolenterazine. • Incubate cell plates for 3 hours at RT. • Inject 10 μL/w of 3× concentrated test compounds and controls in assay buffer at the FLIPRTETRA and monitor the kinetic response over a period of 90 seconds.
(§6) Data from FLIPRTETRA measurements were analyzed with the Genedata Screener© software. The following examples are meant to illustrate, but in no way to limit, the claimed invention.

rCX3CR1 = target: T2, rCX3CR1 (Rattus norvegicus, UniProt P35411); test: as above; conditions: rat CX3CR1 cell line
T2 construct: expressed in transfected cells; stably expresses a Ca2+ sensitive photo-protein
T2 sequence (P35411 1-354): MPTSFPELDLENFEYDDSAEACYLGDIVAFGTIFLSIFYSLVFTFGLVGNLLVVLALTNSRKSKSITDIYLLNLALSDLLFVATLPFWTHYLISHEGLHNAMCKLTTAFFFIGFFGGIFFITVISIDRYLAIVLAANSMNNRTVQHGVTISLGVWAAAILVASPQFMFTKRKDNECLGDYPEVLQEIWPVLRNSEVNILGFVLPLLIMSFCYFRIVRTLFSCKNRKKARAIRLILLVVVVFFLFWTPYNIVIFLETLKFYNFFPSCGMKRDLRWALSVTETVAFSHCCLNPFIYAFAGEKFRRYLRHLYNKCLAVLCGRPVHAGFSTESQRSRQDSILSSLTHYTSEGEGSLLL
Protocol: as §1, §2, §3, §4, §5, §6

hCX3CR1 [1] = target: T3, hCX3CR1 (Homo sapiens, UniProt P49238); test: as above; set-up: expressed in transfected cells; stably expresses a Ca2+ sensitive photo-protein; conditions: human CX3CR1 cell line
T3 sequence (P49238 1-355): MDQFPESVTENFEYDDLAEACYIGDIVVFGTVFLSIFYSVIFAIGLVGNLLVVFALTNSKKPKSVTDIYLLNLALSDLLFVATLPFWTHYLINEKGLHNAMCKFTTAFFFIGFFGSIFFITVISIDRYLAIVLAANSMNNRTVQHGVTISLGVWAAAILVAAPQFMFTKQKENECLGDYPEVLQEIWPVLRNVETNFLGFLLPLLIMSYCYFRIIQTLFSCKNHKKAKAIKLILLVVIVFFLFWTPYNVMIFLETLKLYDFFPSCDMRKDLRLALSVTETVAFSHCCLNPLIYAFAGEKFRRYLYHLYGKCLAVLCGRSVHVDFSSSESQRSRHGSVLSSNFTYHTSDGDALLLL
Protocol: as §1, §2, §3, §4, §5, §6

hCX3CR1 [2] = target: T3, hCX3CR1; test: Suchi5 assay (HEK/NatClytin/CNG/Suchi5 transiently transfected hCX3CR1, Fluo-8 Ca2+ readout); set-up: expressed in transfected cells; stably expresses a Ca2+ sensitive photo-protein; conditions: Suchi5 assay, HEK/NatClytin/CNG/Suchi5 transfected with hCX3CR1; read-out: hCX3CR1 agonism EC50
Protocol: Buffers and reagents. PBS (D-PBS without calcium and magnesium; EuroClone); Trypsin (Trypsin 0.05%, EDTA 0.02% in PBS; EuroClone); Opti-MEM medium (Thermo Fisher); DMSO (Sigma); Standard tyrode buffer: in-house solution (130 mM NaCl, 5 mM KCl, 2 mM CaCl2), 1 mM MgCl2, 5 mM NaHCO3, 20 mM HEPES in water at pH 7.4; sterile filtered); Screen Quest™ Fluo-8 No Wash Calcium Assay Kit (AAt Bioquest®); Lipofectamine® 2000 Reagent (Thermo Fisher); Agonist: Recombinant Human Fractalkine (CX3CL1) (PeproTech); stock: 10 μM in standard Tyrode buffer/BSA 01%; stored at −20° C.
Cell line. The final cell line for CX3CR1-Suchi5 assay is HEK/NatClytin/CNG/Suchi5 transiently transfected hCX3CR1 cDNA. In this cell line native Gαi signaling is switched to Gαq pathway thanks to the overexpression of a Gαiq chimeric G protein (called Suchi5) to direct Gαi activation towards Ca^2+ release for measurement.
Assay protocol. Experiments are performed in 384 MTP format. Transiently transfected cells are seeded at 20,000 cells/well in 25 μl/well Opti-MEM medium without selection antibiotics in 384-well plates. 4-5-hours later 25 μL/well of complete medium with 20% of FBS are added to the cells. Twenty-four hours later, cells are assayed for the response to various compounds using a fluorescent Ca^2+ sensitive dye (FLUO8-No Wash Dye) as readout.
The experiment is performed in a 384-well format according to the following procedure: • 24h after seeding, remove the culture medium. • Load cells with 20 μL/well of 0.5X FLUO-8 No Wash Dye diluted in assay buffer. • Incubate cell plates for 1 hour at RT. • Inject 10 μL/w of 3× concentrated test compounds and controls in assay buffer at the FLIPRTETRA and monitor the kinetic response over a period of 90 seconds.
Data from FLIPRTETRA measurements are analyzed with the Genedata Screener© software.

## COC1CCCN(CC2(CNC(=O)c3cc4c(s3)CCCCCC4)CCC2)C1 (centres unmarked) [Example 55, N-({1-[(3-Methoxypiperidin-1-yl)methyl]cyclobutyl}methyl)-4H,5H,6H,7H,8H,9H-cycloocta[b]thiophene-2-carboxamide]
mCX3CR1
  EC50: 8.1 µM
rCX3CR1
  EC50: 12.1 µM
hCX3CR1 [1]
  EC50: 13.7 µM
hCX3CR1 [2]
  EC50: 7.1 µM

## CC(C)(CNC(=O)c1cc2c(s1)CCCCCC2)CN1CCCC(O)C1 (centres unmarked) [Example 46, N-[3-(3-hydroxypiperidin-1-yl)-2,2-dimethylpropyl]-4,5,6,7,8,9-hexahydrocycloocta[b]thiophene-2-carboxamide]
mCX3CR1
  EC50: 52.8 µM
rCX3CR1
  EC50: 19.8 µM
hCX3CR1 [1]
  EC50: 10.9 µM
hCX3CR1 [2]
  EC50: 11.8 µM

## CC1CCCC1(CNC(=O)c1cc2c(s1)CCCCCC2)CN(C)C (single isomer, unassigned) [Example 61, N-[[1-[(dimethylamino)methyl]-2-methylcyclopentyl]methyl]-4,5,6,7,8,9-hexahydrocycloocta[b]thiophene-2-carboxamide]
mCX3CR1
  EC50: 33.8 µM
rCX3CR1
  EC50: 15.2 µM
hCX3CR1 [1]
  EC50: 13.4 µM
hCX3CR1 [2]
  EC50: 6.8 µM

## CC1(O)CCCN(CC2(CNC(=O)c3cc4c(s3)CCCCCC4)CCC2)C1 (centres unmarked) [Example 59, N-[[1-[(3-hydroxy-3-methylpiperidin-1-yl)methyl]cyclobutyl]methyl]-4,5,6,7,8,9-hexahydrocycloocta[b]thiophene-2-carboxamide]
mCX3CR1
  EC50: 9 µM
rCX3CR1
  EC50: 9.2 µM
hCX3CR1 [1]
  EC50: 11.9 µM
hCX3CR1 [2]
  EC50: 1 µM

## COC1CCN(CC2(CNC(=O)c3cc4c(s3)CCCCCC4)CCC2)CC1 [Example 49, N-[[1-[(4-methoxypiperidin-1-yl)methyl]cyclobutyl]methyl]-4,5,6,7,8,9-hexahydrocycloocta[b]thiophene-2-carboxamide]
mCX3CR1
  EC50: 8.7 µM
rCX3CR1
  EC50: 6.6 µM
hCX3CR1 [1]
  EC50: 10 µM
hCX3CR1 [2]
  EC50: 8.9 µM

## CC(C)OC1CCCN(CC2(CNC(=O)c3cc4c(s3)CCCCCC4)CCC2)C1 (centres unmarked) [Example 50, N-[[1-[(3-propan-2-yloxypiperidin-1-yl)methyl]cyclobutyl]methyl]-4,5,6,7,8,9-hexahydrocycloocta[b]thiophene-2-carboxamide]
mCX3CR1
  EC50: 45.7 µM
rCX3CR1
  EC50: 43.5 µM
hCX3CR1 [1]
  EC50: 15.8 µM
hCX3CR1 [2]
  EC50: 16.1 µM

## COC1CCCN(CC(C)(C)CNC(=O)c2cc3c(s2)CCCCCC3)C1 (centres unmarked) [Example 54, N-[3-(3-methoxypiperidin-1-yl)-2,2-dimethylpropyl]-4,5,6,7,8,9-hexahydrocycloocta[b]thiophene-2-carboxamide]
mCX3CR1
  EC50: > 100 µM
rCX3CR1
  EC50: > 100 µM
hCX3CR1 [1]
  EC50: 16.3 µM
hCX3CR1 [2]
  EC50: 17.4 µM

## CC1(O)CCCN(CC2(CNC(=O)c3cc4c(s3)CCCCCC4)CCCC2)C1 (centres unmarked) [Example 52, N-[[1-[(3-hydroxy-3-methylpiperidin-1-yl)methyl]cyclopentyl]methyl]-4,5,6,7,8,9-hexahydrocycloocta[b]thiophene-2-carboxamide]
mCX3CR1
  EC50: 25.1 µM
rCX3CR1
  EC50: 19.4 µM
hCX3CR1 [1]
  EC50: 19.4 µM
hCX3CR1 [2]
  EC50: 8.4 µM

## O=C(NCC1(CN2CCC(O)C2)CCCC1)c1cc2c(s1)CCCCCC2 (single isomer, unassigned) [Example 63, N-[[1-[(3-hydroxypyrrolidin-1-yl)methyl]cyclopentyl]methyl]-4,5,6,7,8,9-hexahydrocycloocta[b]thiophene-2-carboxamide]
mCX3CR1
  EC50: 13.5 µM
rCX3CR1
  EC50: 9.7 µM
hCX3CR1 [1]
  EC50: 9.8 µM
hCX3CR1 [2]
  EC50: 9.6 µM

## CC(C)(CNC(=O)c1cc2c(s1)CCCCCC2)CN1CCC(O)C(C)(C)C1 (centres unmarked) [Example 68, N-[3-(4-hydroxy-3,3-dimethylpiperidin-1-yl)-2,2-dimethylpropyl]-4,5,6,7,8,9-hexahydrocycloocta[b]thiophene-2-carboxamide]
mCX3CR1
  EC50: > 100 µM
rCX3CR1
  EC50: 63 µM
hCX3CR1 [1]
  EC50: 19.7 µM
hCX3CR1 [2]
  EC50: 19.5 µM

## O=C(NCC1(CN2CCC(O)CC2)CCC1)c1cc2c(s1)CCCCCC2 [Example 41, N-[[1-[(4-hydroxypiperidin-1-yl)methyl]cyclobutyl]methyl]-4,5,6,7,8,9-hexahydrocycloocta[b]thiophene-2-carboxamide]
mCX3CR1
  EC50: 9.4 µM
rCX3CR1
  EC50: 7.4 µM
hCX3CR1 [1]
  EC50: 8.6 µM
hCX3CR1 [2]
  EC50: 2.5 µM

## O=C(NCC1(CN2CCC(O)CC2)CCCOC1)c1cc2c(s1)CCCCCC2 (centres unmarked) [Example 45, N-[[3-[(4-hydroxypiperidin-1-yl)methyl]oxan-3-yl]methyl]-4,5,6,7,8,9-hexahydrocycloocta[b]thiophene-2-carboxamide]
mCX3CR1
  EC50: 41.6 µM
rCX3CR1
  EC50: 18.7 µM
hCX3CR1 [1]
  EC50: 14.3 µM
hCX3CR1 [2]
  EC50: 14.1 µM

## CN(C)CC1(CNC(=O)c2cc3c(s2)CCCCCC3)CC(F)(F)C1 [Example 56, N-[[1-[(dimethylamino)methyl]-3,3-difluorocyclobutyl]methyl]-4,5,6,7,8,9-hexahydrocycloocta[b]thiophene-2-carboxamide]
mCX3CR1
  EC50: 24.9 µM
rCX3CR1
  EC50: 23.9 µM
hCX3CR1 [1]
  EC50: 18.5 µM
hCX3CR1 [2]
  EC50: 9.6 µM

## CC1(C)CN(CC2(CNC(=O)c3cc4c(s3)CCCCCC4)CCC2)CCC1O (centres unmarked) [Example 58, N-[[1-[(4-hydroxy-3,3-dimethylpiperidin-1-yl)methyl]cyclobutyl]methyl]-4,5,6,7,8,9-hexahydrocycloocta[b]thiophene-2-carboxamide]
mCX3CR1
  EC50: 19.1 µM
rCX3CR1
  EC50: 16.8 µM
hCX3CR1 [1]
  EC50: 21.9 µM
hCX3CR1 [2]
  EC50: 5 µM
